Measurements: PMC2360206 (British Journal of Cancer, 2006)
Several values for one entry are separate records, joined by “and”; a condition that tells them apart may be missing. Equal entries are not always repeated. Where two headings read alike, the source gives them in different places.

How the values were obtained:
renal perfusion = experiment: MAG3 renogram functional renal imaging; format: in vivo, human; settings: one of three patients, 800 mg b.i.d., day 3, reverted to normal by day 14
Protocol: In an attempt to understand further the pathogenesis of these biochemical toxicities, three patients were studied more intensively. Urinary retinol-binding protein (RBP), a marker of renal tubular damage was measured in conjunction with functional renal imaging (MAG3 renograms) to estimate renal blood flow pretreatment on days 3 and 14. […] This was associated with bilateral increases in renal parenchymal retention on day 3 on MAG3 scans, which reverted to normal by day 14 (see Figure 1). […] There were no consistent changes in urinary RBP in any of these patients (Table 3).

[1] = design: method as in earlier work; settings: exposure over a 24-h period, preclinical data, ref De la Motte and Gianella-Borradori, 2004, Whittaker et al, Tang et al, 2005; cited from earlier work
Cdk6 = settings: background statement, no reference given; cited from earlier work
[2] = 28 days treatment in rodents; no reference given; cited from earlier work
Cdk8 = settings: background statement, no reference given; cited from earlier work
[3] = design: method as in Raynaud et al, 2005; settings: mouse, single dose 500 mg kg^−1 p.o.; ref Raynaud et al, 2005; cited from earlier work
[4] = design: method as in Pierga et al, 2003; settings: for 5 days, twice-daily oral schedule; ref Pierga et al, 2003; cited from earlier work
plasma proteins = tested on: plasma proteins; design: method as in Vita et al, 2005; settings: primarily albumin; ref Vita et al, 2005; cited from earlier work
[5] = Phase I plasma pharmacokinetics in patients; format: in vivo, human; settings: for Cmax / half-life / AUC(0-inf) / AUC(0-t) / Tmax: human, plasma
Protocol: For PK analysis, blood samples (approximately 8 ml each) were collected in tubes with lithium heparin anticoagulant at the following time points: pre-dose and 0.5, 1, 1.5, 2, 4, 8, 12 (pre-second dose), 13, 14 and 24 h (pre-dose if day 2) after dosing on both days 1 and 7 of the first cycle. The samples were then centrifuged at 3000 r.p.m at 4°C for 10 min, the plasma transferred to 2 ml cryovials and frozen at −70°C until analysis.
Pharmacokinetic (PK) analysis was performed using the trapezoidal method and log-linear regression. The following parameters were determined either by calculation or observation: the observed maximal concentration (Cmax), the time of observed maximal concentration (Tmax), the area under the concentration–time curve calculated by the trapezoidal rule (time 0 to last sample with a quantifiable concentration (AUC (0−tz)) and extrapolated to infinity (AUC(0−∞)), the terminal rate constant, by log-linear regression (λz) and the terminal half-life from λz. The value of AUC(0−∞) was considered unreliable if the terminal area beyond the last quantified sample was greater than 20% of the total AUC(0−∞). Pharmacokinetic (PK) data analysis was carried out using a noncompartmental analysis model with the aid of Kinetica (Innaphase Limited, Amersham, UK).

[6] = po, 100 mg, Day 1, 100 mg b.i.d. p.o. (n=3), mean, course 1
[7] = po, 100 mg, Day 1, 100 mg b.i.d. p.o. (n=3), median, course 1
[8] = po, 100 mg, Day 7, 100 mg b.i.d. p.o. (n=3), mean, course 1
[9] = po, 100 mg, Day 7, 100 mg b.i.d. p.o. (n=3), median, course 1
[10] = po, 200 mg, Day 1, 200 mg b.i.d. p.o. (n=6), mean, course 1
[11] = po, 200 mg, Day 1, 200 mg b.i.d. p.o. (n=6), median, course 1
[12] = po, 200 mg, Day 7, 200 mg b.i.d. p.o. (n=6), mean, course 1
[13] = po, 200 mg, Day 7, 200 mg b.i.d. p.o. (n=6), median, course 1
[14] = po, 800 mg, Day 1, 800 mg b.i.d. p.o. (n=12), mean, course 1
[15] = po, 800 mg, Day 1, 800 mg b.i.d. p.o. (n=12), median, course 1
[16] = po, 800 mg, Day 7, 800 mg b.i.d. p.o. (n=8), mean, course 1
[17] = po, 800 mg, Day 7, 800 mg b.i.d. p.o. (n=8), median, course 1

## CC[C@H](CO)Nc1nc(NCc2ccccc2)c2ncn(C(C)C)c2n1 [Seliciclib]
Renal perfusion
  Renal perfusion by MAG3 perfusion indices: reduction in renal perfusion bilaterally
[1]
  concentration range achieving clinically relevant biological effects: 7.9–30.2 μM
Cdk6
  Inhibition of Cdk6: only a weak inhibitor
[2]
  Preclinical toxicology findings: anaemia, leucocytosis, bone marrow hyperplasia, polydipsia, polyuria and gastric ulceration
Cdk8
  Inhibition of Cdk8: only a weak inhibitor
[3]
  peak seliciclib concentration: approximately 100 μM
[4]
  Recommended phase II dose: 2500 mg per day
Plasma proteins
  Bound to plasma proteins: 90%
[5]; highest dose level (800 mg)
  mean maximum plasma concentration: approximately 3 μg ml^−1
[5]; oral, 800 mg, 800 mg dose level, read-out: mean Cmax
  Cmax: 3e+06 ng/mL and 10 µM
[5]; oral, similar in all dose groups, read-out: terminal (elimination) half-life
  half-life: 2 to 5 h
[5]; [6]
  AUC(0-inf): 1920 ng·h/mL
  AUC(0-t): 1870 ng·h/mL
[5]; po, 100 mg, Day 1, 100 mg b.i.d. p.o. (n=3), mean, course 1, read-out: Cmax
  Cmax: 248 ng/mL
[5]; po, 100 mg, Day 1, 100 mg b.i.d. p.o. (n=3), mean, course 1, read-out: Tmax (converted)
  Tmax: 1.87 h
[5]; po, 100 mg, Day 1, 100 mg b.i.d. p.o. (n=3), mean, course 1, read-out: t1/2
  half-life: 4.45 h
[5]; [7]
  AUC(0-inf): 1500 ng·h/mL
  AUC(0-t): 1370 ng·h/mL
[5]; po, 100 mg, Day 1, 100 mg b.i.d. p.o. (n=3), median, course 1, read-out: Cmax
  Cmax: 134 ng/mL
[5]; po, 100 mg, Day 1, 100 mg b.i.d. p.o. (n=3), median, course 1, read-out: Tmax (converted)
  Tmax: 1.02 h
[5]; po, 100 mg, Day 1, 100 mg b.i.d. p.o. (n=3), median, course 1, read-out: t1/2
  half-life: 4.63 h
[5]; [8]
  AUC(0-inf): 2890 ng·h/mL
  AUC(0-t): 2860 ng·h/mL
[5]; po, 100 mg, Day 7, 100 mg b.i.d. p.o. (n=3), mean, course 1, read-out: Cmax
  Cmax: 162 ng/mL
[5]; po, 100 mg, Day 7, 100 mg b.i.d. p.o. (n=3), mean, course 1, read-out: Tmax (converted)
  Tmax: 3.17 h
[5]; po, 100 mg, Day 7, 100 mg b.i.d. p.o. (n=3), mean, course 1, read-out: t1/2
  half-life: 4.47 h
[5]; [9]
  AUC(0-inf): 3040 ng·h/mL
  AUC(0-t): 3030 ng·h/mL
[5]; po, 100 mg, Day 7, 100 mg b.i.d. p.o. (n=3), median, course 1, read-out: Cmax
  Cmax: 152 ng/mL
[5]; po, 100 mg, Day 7, 100 mg b.i.d. p.o. (n=3), median, course 1, read-out: Tmax (converted)
  Tmax: 4 h
[5]; po, 100 mg, Day 7, 100 mg b.i.d. p.o. (n=3), median, course 1, read-out: t1/2
  half-life: 3.9 h
[5]; [10]
  AUC(0-inf): 3030 ng·h/mL
  AUC(0-t): 2770 ng·h/mL
[5]; po, 200 mg, Day 1, 200 mg b.i.d. p.o. (n=6), mean, course 1, read-out: Cmax
  Cmax: 179 ng/mL
[5]; po, 200 mg, Day 1, 200 mg b.i.d. p.o. (n=6), mean, course 1, read-out: Tmax (converted)
  Tmax: 4.65 h
[5]; po, 200 mg, Day 1, 200 mg b.i.d. p.o. (n=6), mean, course 1, read-out: t1/2
  half-life: 2.93 h
[5]; [11]
  AUC(0-inf): 3840 ng·h/mL
  AUC(0-t): 3080 ng·h/mL
[5]; po, 200 mg, Day 1, 200 mg b.i.d. p.o. (n=6), median, course 1, read-out: Cmax
  Cmax: 80 ng/mL
[5]; po, 200 mg, Day 1, 200 mg b.i.d. p.o. (n=6), median, course 1, read-out: Tmax (converted)
  Tmax: 2.78 h
[5]; po, 200 mg, Day 1, 200 mg b.i.d. p.o. (n=6), median, course 1, read-out: t1/2
  half-life: 2.48 h
[5]; [12]
  AUC(0-inf): 4250 ng·h/mL
  AUC(0-t): 2930 ng·h/mL
[5]; po, 200 mg, Day 7, 200 mg b.i.d. p.o. (n=6), mean, course 1, read-out: Cmax
  Cmax: 310 ng/mL
[5]; po, 200 mg, Day 7, 200 mg b.i.d. p.o. (n=6), mean, course 1, read-out: Tmax (converted)
  Tmax: 1.03 h
[5]; po, 200 mg, Day 7, 200 mg b.i.d. p.o. (n=6), mean, course 1, read-out: t1/2
  half-life: 13 h
[5]; [13]
  AUC(0-inf): 3480 ng·h/mL
  AUC(0-t): 3080 ng·h/mL
[5]; po, 200 mg, Day 7, 200 mg b.i.d. p.o. (n=6), median, course 1, read-out: Cmax
  Cmax: 303 ng/mL
[5]; po, 200 mg, Day 7, 200 mg b.i.d. p.o. (n=6), median, course 1, read-out: Tmax (converted)
  Tmax: 1 h
[5]; po, 200 mg, Day 7, 200 mg b.i.d. p.o. (n=6), median, course 1, read-out: t1/2
  half-life: 3.8 h
[5]; [14]
  AUC(0-inf): 53000 ng·h/mL
  AUC(0-t): 52700 ng·h/mL
[5]; po, 800 mg, Day 1, 800 mg b.i.d. p.o. (n=12), mean, course 1, read-out: Cmax
  Cmax: 3200 ng/mL
[5]; po, 800 mg, Day 1, 800 mg b.i.d. p.o. (n=12), mean, course 1, read-out: Tmax (converted)
  Tmax: 2.95 h
[5]; po, 800 mg, Day 1, 800 mg b.i.d. p.o. (n=12), mean, course 1, read-out: t1/2
  half-life: 3.65 h
[5]; [15]
  AUC(0-inf): 57500 ng·h/mL
  AUC(0-t): 57400 ng·h/mL
[5]; po, 800 mg, Day 1, 800 mg b.i.d. p.o. (n=12), median, course 1, read-out: Cmax
  Cmax: 3160 ng/mL
[5]; po, 800 mg, Day 1, 800 mg b.i.d. p.o. (n=12), median, course 1, read-out: Tmax (converted)
  Tmax: 2 h
[5]; po, 800 mg, Day 1, 800 mg b.i.d. p.o. (n=12), median, course 1, read-out: t1/2
  half-life: 3.87 h
[5]; [16]
  AUC(0-inf): 26600 ng·h/mL
  AUC(0-t): 26500 ng·h/mL
[5]; po, 800 mg, Day 7, 800 mg b.i.d. p.o. (n=8), mean, course 1, read-out: Cmax
  Cmax: 2770 ng/mL
[5]; po, 800 mg, Day 7, 800 mg b.i.d. p.o. (n=8), mean, course 1, read-out: Tmax (converted)
  Tmax: 1.65 h
[5]; po, 800 mg, Day 7, 800 mg b.i.d. p.o. (n=8), mean, course 1, read-out: t1/2
  half-life: 3.83 h
[5]; [17]
  AUC(0-inf): 21300 ng·h/mL
  AUC(0-t): 21300 ng·h/mL
[5]; po, 800 mg, Day 7, 800 mg b.i.d. p.o. (n=8), median, course 1, read-out: Cmax
  Cmax: 2640 ng/mL
[5]; po, 800 mg, Day 7, 800 mg b.i.d. p.o. (n=8), median, course 1, read-out: Tmax (converted)
  Tmax: 1.78 h
[5]; po, 800 mg, Day 7, 800 mg b.i.d. p.o. (n=8), median, course 1, read-out: t1/2
  half-life: 3.48 h
[5]; po, all dose levels, oral, read-out: Tmax range (time to peak plasma concentrations)
  Tmax: 1 to 4 h
[5]; po, all dose levels, oral, read-out: mean Tmax
  Tmax: 2.55 h
[5]; patients, oral
  plasma clearance: greater than liver blood flow
